Reference: ChEMBL document CHEMBL1201862, “PubChem BioAssay data set” (2004)
Active and inactive are the calls of the source.

How the values were obtained:
[1] = target: 5-hydroxytryptamine receptor 1A (Homo sapiens, UniProt P08908); format: functional
Protein skinhead-1 = target: T1, Protein skinhead-1 (Caenorhabditis elegans, UniProt P34707); format: functional
T1 sequence (P34707 whole entry): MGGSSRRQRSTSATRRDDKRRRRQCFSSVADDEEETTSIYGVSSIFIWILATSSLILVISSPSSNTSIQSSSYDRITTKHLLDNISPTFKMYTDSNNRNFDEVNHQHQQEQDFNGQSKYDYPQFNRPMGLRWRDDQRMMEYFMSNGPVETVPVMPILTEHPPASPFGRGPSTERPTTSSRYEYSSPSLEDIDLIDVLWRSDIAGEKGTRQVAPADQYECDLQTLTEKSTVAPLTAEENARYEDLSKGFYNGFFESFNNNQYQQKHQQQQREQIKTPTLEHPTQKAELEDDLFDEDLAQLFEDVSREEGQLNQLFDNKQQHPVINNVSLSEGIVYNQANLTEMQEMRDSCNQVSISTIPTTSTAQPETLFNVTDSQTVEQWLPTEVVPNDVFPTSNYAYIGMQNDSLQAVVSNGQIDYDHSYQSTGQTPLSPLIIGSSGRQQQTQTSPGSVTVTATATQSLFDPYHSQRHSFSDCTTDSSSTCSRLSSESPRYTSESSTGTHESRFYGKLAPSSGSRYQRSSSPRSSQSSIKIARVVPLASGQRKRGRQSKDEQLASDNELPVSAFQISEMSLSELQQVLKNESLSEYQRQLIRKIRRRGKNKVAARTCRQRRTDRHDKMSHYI

[2] = target: Neuropeptide Y receptor type 1 (Homo sapiens, UniProt P25929); format: functional;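 further: HEK293 cells with a CNG channel challenged with NPY then isoproterenol; potency as antagonist that reverses NPY suppression of cAMP signal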
Chain of Neuropeptide Y receptor type 1 (P25929 whole entry): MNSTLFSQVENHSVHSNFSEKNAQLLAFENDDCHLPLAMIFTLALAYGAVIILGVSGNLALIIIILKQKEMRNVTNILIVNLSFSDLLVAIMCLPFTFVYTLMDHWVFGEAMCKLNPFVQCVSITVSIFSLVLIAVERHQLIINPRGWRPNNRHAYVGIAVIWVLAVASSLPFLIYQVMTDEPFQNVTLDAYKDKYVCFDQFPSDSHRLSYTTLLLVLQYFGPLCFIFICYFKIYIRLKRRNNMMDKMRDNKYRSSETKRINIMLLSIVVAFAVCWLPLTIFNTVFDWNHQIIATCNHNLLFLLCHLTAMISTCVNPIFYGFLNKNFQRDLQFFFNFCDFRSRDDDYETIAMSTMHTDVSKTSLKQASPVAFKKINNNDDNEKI

[3] = target: Neuropeptide Y receptor type 2 (Homo sapiens, UniProt P49146); format: functional, cell-based;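 further: HEK293 cells expressing the receptor and a CNG channel; stimulus was NPY near EC95 followed by isoproterenol to raise cAMP; antagonist potency measured as restoring cAMP signal that NPY suppresses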
Chain of Neuropeptide Y receptor type 2 (P49146 whole entry): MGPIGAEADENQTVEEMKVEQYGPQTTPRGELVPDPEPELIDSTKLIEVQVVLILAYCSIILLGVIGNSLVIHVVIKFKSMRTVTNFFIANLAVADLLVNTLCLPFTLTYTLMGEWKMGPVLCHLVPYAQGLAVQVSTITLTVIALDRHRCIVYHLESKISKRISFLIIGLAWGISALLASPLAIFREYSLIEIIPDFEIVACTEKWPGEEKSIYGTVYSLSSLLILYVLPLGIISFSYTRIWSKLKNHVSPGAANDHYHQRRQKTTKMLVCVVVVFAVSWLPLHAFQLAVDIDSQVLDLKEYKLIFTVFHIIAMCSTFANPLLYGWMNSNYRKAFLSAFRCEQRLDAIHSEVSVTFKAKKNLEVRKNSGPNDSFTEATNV

INS1 = experiment: INS-1E survival protection against cytokine death – cell-based, luminescence, retest, dose response (AID 449756); format: functional; settings: Rattus norvegicus;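 further: cell death triggered by IL-1 beta plus TNF-alpha plus IFN-gamma mixture; protective hits raise ATP signal compared with cytokine alone wells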
[4] = Luminescent dose response cell-based high throughput screening assay for inhibitors of the Janus kinase 2 mutant JAK2V617F. [Related pubchem assays: 1446 (Primary screen.), 1521 (Confirmation assay.), 1486 (Counter screen.)]; format: functional
[5] = target: Diphosphomevalonate decarboxylase (Streptococcus pneumoniae serotype 2 (strain D39 / NCTC 7466), UniProt Q9FD53); experiment: diphosphomevalonate decarboxylase inhibitor confirmation – biochemical, cuvette format, coupled NADH fluorescence (AID 1028); format: functional
Chain of Diphosphomevalonate decarboxylase (Q9FD53 whole entry): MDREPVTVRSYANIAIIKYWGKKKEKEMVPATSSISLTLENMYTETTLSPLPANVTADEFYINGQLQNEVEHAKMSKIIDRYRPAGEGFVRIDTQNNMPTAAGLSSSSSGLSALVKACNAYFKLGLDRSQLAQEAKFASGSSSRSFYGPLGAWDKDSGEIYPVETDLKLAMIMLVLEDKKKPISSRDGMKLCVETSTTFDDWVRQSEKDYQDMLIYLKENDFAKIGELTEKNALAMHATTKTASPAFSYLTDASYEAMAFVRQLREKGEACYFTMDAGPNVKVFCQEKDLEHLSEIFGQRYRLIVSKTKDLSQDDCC

[6] = HEK-293T viability loss after treatment – luminescence, T-cell screen hits, cytotoxicity control for TCR NF-kB inhibitor project, dose response (AID 489026); format: functional, cell-based;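 further: cells exposed to compound about 14 hours before the viability readout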
Vero = experiment: mammalian cell viability reduction – secondary assay, cytotoxicity control for West Nile virus antiviral project, dose response (AID 1650); format: functional; settings: Chlorocebus sabaeus
Estrogen receptor beta [7] = target: T2, Estrogen receptor beta (Homo sapiens, UniProt Q92731); experiment: blockers of SRC-3 recruitment to ERβ – biochemical, ELISA, streptavidin-HRP readout, orthogonal assay, confirmation (AID 1060)
T2 sequence (Q92731 whole entry): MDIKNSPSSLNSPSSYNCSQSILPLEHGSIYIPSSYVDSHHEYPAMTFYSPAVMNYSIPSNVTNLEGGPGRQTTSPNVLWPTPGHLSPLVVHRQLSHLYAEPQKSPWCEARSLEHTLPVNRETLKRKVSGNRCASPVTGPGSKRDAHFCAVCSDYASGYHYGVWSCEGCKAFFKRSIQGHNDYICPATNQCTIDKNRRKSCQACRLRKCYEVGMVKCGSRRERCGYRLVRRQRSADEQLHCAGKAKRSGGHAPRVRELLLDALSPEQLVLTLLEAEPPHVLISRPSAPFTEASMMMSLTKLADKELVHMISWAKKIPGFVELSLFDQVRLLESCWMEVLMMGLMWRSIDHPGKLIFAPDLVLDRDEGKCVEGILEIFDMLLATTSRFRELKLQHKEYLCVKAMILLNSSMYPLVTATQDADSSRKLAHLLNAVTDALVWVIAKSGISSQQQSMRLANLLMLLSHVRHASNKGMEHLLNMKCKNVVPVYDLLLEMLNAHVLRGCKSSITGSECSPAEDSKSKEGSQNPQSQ

Estrogen receptor = Estrogen receptor (Homo sapiens, UniProt P03372);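 further: potency for inhibiting coactivator peptide recruitment to the receptor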
Chain of Estrogen receptor (P03372 whole entry): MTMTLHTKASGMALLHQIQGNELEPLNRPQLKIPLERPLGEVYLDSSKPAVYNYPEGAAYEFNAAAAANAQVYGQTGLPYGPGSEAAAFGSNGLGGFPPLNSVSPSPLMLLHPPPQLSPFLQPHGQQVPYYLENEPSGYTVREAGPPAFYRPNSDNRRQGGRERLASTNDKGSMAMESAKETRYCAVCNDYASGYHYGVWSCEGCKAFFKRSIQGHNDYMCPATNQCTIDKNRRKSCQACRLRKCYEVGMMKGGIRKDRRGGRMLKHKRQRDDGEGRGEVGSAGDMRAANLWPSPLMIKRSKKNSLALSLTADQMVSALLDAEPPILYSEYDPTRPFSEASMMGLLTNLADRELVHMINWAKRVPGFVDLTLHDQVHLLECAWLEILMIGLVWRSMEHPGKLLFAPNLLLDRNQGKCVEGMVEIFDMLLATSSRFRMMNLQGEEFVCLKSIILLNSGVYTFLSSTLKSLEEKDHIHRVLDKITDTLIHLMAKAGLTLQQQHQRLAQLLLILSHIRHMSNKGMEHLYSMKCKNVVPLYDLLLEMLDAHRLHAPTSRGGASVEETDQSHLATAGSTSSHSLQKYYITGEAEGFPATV

Estrogen receptor beta [8] = target: T2, Estrogen receptor beta

Chain of 5-hydroxytryptamine receptor 1A (P08908 whole entry): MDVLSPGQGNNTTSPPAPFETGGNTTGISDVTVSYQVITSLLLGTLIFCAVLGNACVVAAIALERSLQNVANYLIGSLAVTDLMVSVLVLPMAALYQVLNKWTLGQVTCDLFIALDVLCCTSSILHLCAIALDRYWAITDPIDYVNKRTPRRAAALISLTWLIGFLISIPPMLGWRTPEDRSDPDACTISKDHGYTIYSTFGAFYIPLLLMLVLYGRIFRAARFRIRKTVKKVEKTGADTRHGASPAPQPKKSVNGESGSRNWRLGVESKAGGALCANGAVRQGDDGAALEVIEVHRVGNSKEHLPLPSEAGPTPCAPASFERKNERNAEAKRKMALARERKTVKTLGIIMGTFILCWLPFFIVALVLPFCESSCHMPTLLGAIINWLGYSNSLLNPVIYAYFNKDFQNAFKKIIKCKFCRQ

With CN(C)CCOC(=O)c1cn(Cc2ccccc2)c2ccccc12 the EC50 [1] was > 50 µM (not active).
In the case of O=C(CSc1nc2ccccc2o1)c1ccc2c(c1)OCCO2, the IC50 (Protein skinhead-1) is reported as > 100 µM (inactive), the IC50 [2] is reported as 11.3 µM (not active) and the IC50 [3] is reported as 18.3 µM (not active).
For CCCOc1ccc(C(=O)C(CN2CCOCC2)c2ccccc2)cc1 (configuration not stated), the AC50 (INS1) was > 60 µM (inactive) and the IC50 [4] was 0.909 µM (active).
For CCCNC(=O)c1ccc(-n2sc3ccccc3c2=O)cc1, the IC50 [5] was 7.48 µM (active).
In the case of CCOc1ccc2c(c1)OC(c1ccc(OC)cc1)(C(F)(F)F)NC2=O (configuration not stated), the IC50 [6] is reported as > 80 µM (inactive) and the CC50 (Vero) is reported as 13.7 µM (active).
For Cc1occc1C(=O)Nc1ccccc1NC(=O)c1ccoc1C, the IC50 (Estrogen receptor beta [7]) was 0.155 µM (not active), the IC50 (Estrogen receptor) was > 50 µM (not active) and the IC50 (Estrogen receptor beta [8]) was > 50 µM (not active).
